Measured values taken from patent US11440939B2, “Anticancer peptides” (IDP DISCOVERY PHARMA, S.L., priority 2017, dated 2022).
Numbered stars: 1 amine (or outer) side, 2 acyl side, 3 side chain; on linkers, the order of the positions; unused ones are H or OH. Bridge positions count the residues as written; N and C are the ends. Square brackets hold non-standard residues; d marks the D form. Peptide text beside a SMILES is read from it. ξ: configuration not given here. ξαMeNle(6-ylidene) = CC(CCCC=[*:3])(N[*:1])C(=O)[*:2]; X1 = CC(CCCCCCC=[*:3])(N[*:1])C(=O)[*:2]

Key:
[1] = test system: NCI-H524; assay type: cell-based; details: 72 h
Protocol: NCI-H524, lung (small cell lung cancer, SCLC), ATCC-CRL-5831;
Cell line MCF-7 was cultured in incubator under CO2 (6%) at 37° C. in DMEM high glucose (Dulbecco's Modified Eagle Solution, Gibco-BRL 31966-21) medium with 10% fetal bovine serum inactivated (FBS) (Gibco-BRL 10106-169). Cell lines HL-60, NCI-H524, NCI-H526, NCI-H69, NCI-H82, NCI-H187 and H5B were cultured in an incubator at 37° C. in RPMI-1640 (Sigma R8758) medium with 10% of fetal bovine serum inactivated (FBS) and 2 mM glutamine (Sigma G7513). Cell line NCI-H510A was cultured in incubator in F12K medium with 10% of fetal bovine serum inactivated (FBS). Cell line GBM-18 and GBM-27 were cultured in incubator under CO2 (6%) at 37° C. in complete medium (Neurobasal+B27+Glutamax+Growth factors).
During the amplification step and the assays, adherent cells were rinsed with DPBS (Dulbecco's Phosphate Buffered Saline, Sigma D1283) three times and afterward treated for 5 minutes with trypsin ([…]) (Gibco-BRL, 15400054) in solution of DPBS at 37° C., and, once detached, transferred in the culturing medium. No-adherent cells were centrifuged and transferred in the culturing medium. Cells were counted in a Neubauer chamber after labelling with Tripan-Blue. […]
Cells were incubated during 72 h in incubator under CO2 atmosphere at 37° C. Cell viability was measured by means of MTT (3-(4,5-dimethylthiazol-2-yl)-2,5-diphenyltetrazolium bromide) assay, Alamar Blue® (Biosource DAL1100) and Hexosaminidase activity test, consecutively, following manufacturer instructions.
MTT: 1. […] Absorbance at 570 nm was finally measured.
Alamar Blue: 10 μl Alamar Blue solution was added to each well and the plates were incubated for […] in the incubator. Fluorescence ratio at 535/590 (excitation/emission) was measured in Cytofluor (Millipore) fluorimeter. Blank control was determined by lysis of untreated cells with con 2% of Triton X100, right before adding Alamar Blue solution. […]

[2] = Stability test in human plasma, LC MS/MS; assay type: in vitro ADME; details: 37° C.
Protocol: For the preparation of stock solutions, H14 was dissolved in water/acetonitrile (95/5, v/v) containing 0.1% formic acid to a concentration of 1.00 mg/mL. Further serial dilutions were carried out in plasma. The concentrations were calculated under consideration of purity.
For preparation of plasma samples, the human blank plasma were fortified with the stock solution using a ratio of 1:100 to obtain a sample with 10.0 μg/mL which was subsequently serial-diluted in human blank plasma.
A volume of 300 μL of human plasma samples for the two peptide concentrations (100 ng/mL and 1000 ng/mL) were transferred to an empty 96 deep well plate. The plate was incubated at 37° C. in a thermomixer at approximately 700 rpm. At selected incubation time points of 0 h, 1 h, 2 h, 4 h, 6 h and 24 h, aliquots of plasma were precipitated with acetonitrile containing internal standard. To an aliquot of 20 μL human plasma samples, 40 μL of acetonitrile containing 1% formic acid and the internal standard was added. After vortex mixing for a few seconds, the samples were centrifuged for about 10 minutes at approximately 50000 g. The temperature of the centrifuge was set to 8° C. An aliquot of 30 μL of the supernatant was transferred to an autosampler vial for analysis using LC MS/MS.
The quantification of H14 was performed by column separation with reverse phase chromatography followed by detection with triple stage quadrupole MS/MS in the selected reaction monitoring mode.

## CC(C)C[C@H](NC(=O)[C@H](CCCCN)NC(=O)[C@@H](NC(=O)[C@@H](N)CCCNC(=N)N)C(C)C)C(=O)N[C@H](C(=O)N[C@@H](CC(N)=O)C(=O)N[C@@H](CC(C)C)C(=O)NC1(C)CCCCCCC=CCCCC(C)(C(=O)N[C@H](C(=O)N2CCC[C@H]2C(N)=O)C(C)C)NC(=O)[C@H](CCC(=O)O)NC(=O)[C@H](CCCNC(=N)N)NC(=O)[C@H](CC(C)C)NC(=O)[C@H]([C@@H](C)O)NC(=O)[C@H](C)NC(=O)[C@H](Cc2ccccc2)NC1=O)C(C)C (stereo partly shown) [H14] (H-RVKLVNL[X1]FATLRE[ξαMeNle(6-ylidene)]VP-NH2; staple 8-15; N-terminus and C-terminus assumed)
[1]
  EC50: ~12.5 µM
[2]; 100 ng/mL, 0 h
  H14 amount (% peak area): 100 % peak area
[2]; 100 ng/mL, 1 h, read-out: H14 amount (% peak area)
  remaining at 1 h, 100 ng/mL: 96.1%
[2]; 100 ng/mL, 2 h
  H14 amount (% peak area): 96.1 % peak area
[2]; 100 ng/mL, 4 h, read-out: H14 amount (% peak area)
  remaining at 4 h, 100 ng/mL: 102%
[2]; 100 ng/mL, 6 h, read-out: H14 amount (% peak area)
  remaining at 6 h, 100 ng/mL: 97.2%
[2]; 100 ng/mL, 24 h, read-out: H14 amount (% peak area)
  remaining at 24 h, 100 ng/mL: 108%
[2]; 1000 ng/mL, 0 h
  H14 amount (% peak area): 100 % peak area
[2]; 1000 ng/mL, 1 h, read-out: H14 amount (% peak area)
  remaining at 1 h, 1000 ng/mL: 101%
[2]; 1000 ng/mL, 2 h, read-out: H14 amount (% peak area)
  remaining at 2 h, 1000 ng/mL: 94.9%
[2]; 1000 ng/mL, 4 h, read-out: H14 amount (% peak area)
  remaining at 4 h, 1000 ng/mL: 95.4%
[2]; 1000 ng/mL, 6 h, read-out: H14 amount (% peak area)
  remaining at 6 h, 1000 ng/mL: 99.9%
[2]; 1000 ng/mL, 24 h, read-out: H14 amount (% peak area)
  remaining at 24 h, 1000 ng/mL: 101%
